From ChEMBL document CHEMBL1153579, “Knowledge based identification of MAO-B selective inhibitors using pharmacophore and structure based virtual screening models” (Eur J Med Chem, 2009)

Target: T1, Amine oxidase [flavin-containing] B (Homo sapiens, UniProt P27338)
T1 sequence (P27338 whole entry): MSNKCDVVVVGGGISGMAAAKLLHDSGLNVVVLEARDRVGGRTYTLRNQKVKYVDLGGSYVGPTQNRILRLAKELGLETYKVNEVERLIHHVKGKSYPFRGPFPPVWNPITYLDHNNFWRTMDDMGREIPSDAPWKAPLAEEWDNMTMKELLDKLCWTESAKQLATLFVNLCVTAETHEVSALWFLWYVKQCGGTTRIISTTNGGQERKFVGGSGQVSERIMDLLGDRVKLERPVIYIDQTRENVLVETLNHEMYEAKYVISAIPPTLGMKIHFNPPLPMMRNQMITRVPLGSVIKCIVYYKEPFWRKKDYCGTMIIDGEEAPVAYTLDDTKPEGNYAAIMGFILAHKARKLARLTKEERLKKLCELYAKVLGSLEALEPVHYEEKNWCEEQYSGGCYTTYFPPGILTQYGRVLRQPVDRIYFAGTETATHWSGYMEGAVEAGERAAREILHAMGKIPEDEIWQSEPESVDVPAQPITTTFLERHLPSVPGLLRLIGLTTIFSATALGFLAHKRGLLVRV
Experiment: Inhibition of MAOB

IC50 [µM]	SMILES
92	COc1ccc(C2=NN(C(=S)Nc3ccccc3)C(c3cccs3)C2)cc1 (configuration not stated)
8.9	COc1cc(O)ccc1O
65	C=CNC(=S)N1N=C(c2ccc(OC)cc2)CC1c1cccs1 (configuration not stated)
19	NC1CC1(F)c1ccccc1 (configuration not stated)
22	CCNC(=S)N1N=C(c2ccc(OC)cc2)CC1c1cccs1 (configuration not stated)
240	C=CCNC(=S)N1N=C(c2ccc(C)cc2)CC1c1cccs1 (configuration not stated)
13	Cc1ccc(C2(F)CC2N)cc1 (configuration not stated)
25	COc1ccc(C2CC(c3ccccc3)=NN2C(C)=O)cc1OC (configuration not stated)
40	COc1ccc(C2=NN(C(C)=O)C(c3ccccc3C)C2)c(OC)c1 (configuration not stated)
6.7	CCOC(=O)/C=C/c1ccc(O)c(OC)c1 [ETHYL FERULATE]
17	CC(=O)NC[C@H]1CN(c2ccc(N3CCOCC3)c(F)c2)C(=O)O1 [LINEZOLID]

SMILES	IC50 [µM]
Oc1ccc(/C=C\c2cc(O)cc(O)c2)cc1 [CIS-RESVERATROL]	61
